Measured values published in patent publication US10682362B2, “Treatments and diagnostics for cancers” (Wayne State University, priority 2015, dated 2020).
Where two headings read alike, the source gives them in different places. Values belong to the compound of their own block, whether it stands above or below them. Where a SMILES comes first, the peptide text is derived from it. The star is where a group is joined. Cbz = O=C(OCc1ccccc1)*

What was measured:
22Rv1 cells [1] = experiment: morphological changes and crystal violet staining of 22Rv1 cells; assay type: cell-based; settings: bortezomib 2.5 or 5 nM, Gal 20 μM, 24 h and 48 h
Description: In 12C, cells were fixed with formalin, and then stained with violet overnight.

proteasome [2] = molecular target: T1, proteasome (Homo sapiens, UniProt P28072+P28074+Q99436); experiment: cellular proteasomal CT-like, PGPH-like and T-like activities in 22Rv1 cells; assay type: cell-based; design: endogenous in cells; host or cells: 22Rv1; settings: for inhibition at 20 µM: 22Rv1, 22Rv1 cells, 20 μM Gal
T1 sequence (P28074 60-263): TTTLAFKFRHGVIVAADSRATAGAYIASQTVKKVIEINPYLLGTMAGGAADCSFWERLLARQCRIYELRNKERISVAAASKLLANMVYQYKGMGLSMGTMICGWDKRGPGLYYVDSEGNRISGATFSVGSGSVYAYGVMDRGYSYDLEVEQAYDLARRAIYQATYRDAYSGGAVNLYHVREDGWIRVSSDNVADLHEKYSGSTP
T1 sequence (P28072 1-239): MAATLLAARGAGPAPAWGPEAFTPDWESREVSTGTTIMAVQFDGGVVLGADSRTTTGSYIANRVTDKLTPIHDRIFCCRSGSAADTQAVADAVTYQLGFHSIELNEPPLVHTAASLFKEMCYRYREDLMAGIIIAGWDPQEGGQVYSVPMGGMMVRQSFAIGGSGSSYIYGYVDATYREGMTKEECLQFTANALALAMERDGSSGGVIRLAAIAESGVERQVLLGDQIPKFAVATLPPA
T1 sequence (Q99436 44-277): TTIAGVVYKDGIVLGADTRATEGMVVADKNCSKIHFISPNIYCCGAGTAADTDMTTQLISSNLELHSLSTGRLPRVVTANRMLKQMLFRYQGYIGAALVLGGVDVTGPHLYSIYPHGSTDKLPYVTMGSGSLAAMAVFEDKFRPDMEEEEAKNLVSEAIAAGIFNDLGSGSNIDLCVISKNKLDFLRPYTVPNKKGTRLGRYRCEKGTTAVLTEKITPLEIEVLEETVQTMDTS
Description: (§1) FIGS. 11A-11D. […] Actin was used a load control (b). […] (f) Actin, loading control.

metastatic CRPC [3] = settings: phase III clinical trials; versus 10.9 months placebo; cited from earlier work
metastatic CRPC [4] = settings: cited from earlier work
AR-V7 protein [5] = experiment: Western blotting of AR-V7 in nuclear and cytosolic fractions of 22Rv1 cells; assay type: cell-based; settings: for rescue of Gal-induced nuclear AR-V7 loss: androgen-starved 22Rv1 cells, 20 μM Gal plus 40 μM calpeptin or 20 μM Z-VAD
Description: Nuclear fractions were isolated and separated by Western blotting to determine AR-V7 levels. Actin was used as a loading control.

AR-V7 protein [6] = settings: 22Rv1 cells, 20 μM Gal; 40 μM calpeptin or PD 66 h; 50 μM ALLM or pan-caspase inhibitor up to 72 h
Description: Western blotting with anti-N20/AR antibody to examine levels of AR and AR-V7 proteins in various prostate cancer cell lines. […] This was followed by Western blotting with specific AR-V7 antibody, with Actin as a loading control.
Western blotting. (a, b) AR-V7 and AR protein levels determined by AR-V7 specific antibody and N20 antibody, respectively. (c) PARP/p89 is a caspase-3 cleavage fragment while PARP/p65 is a calpain cleavage product. (d) Caspase-3 cleavage fragment of Spectrin α2/p120, and a 150 fragment by either caspase-3 or calpain cleavage. (e) Autolysis of calpain small subunit (Cal Sm) to p28 fragment. (f) Calpain cleavage fragment of Calpastatin/p70. […] Caspase-3 activity assay.
In C, (a) Cell lysates were derivatized with 2,4-dinitrophenylhydrazine (DNPH), followed by Western blotting to determine the levels of oxidized proteins (Oxi-P). Actin was used a load control (b). AR-V7 levels were determined by AR-V7 specific antibody (c). PARP/p89 is caspase-3 cleavage fragment while PARP/p65 is calpain cleavage product (d). (e) Autolysis of calpain small subunit (Cal Sm) to p28 fragment. (f) Actin, loading control.

proteasome [7] = settings: cited from earlier work
calpain [8] = settings: cited from earlier work
AR-V7 = settings: 5 μM of MG132; cited from earlier work
[9] = test system: full length AR (AR-FL) protein; experiment: Western blotting of full length AR (anti-AR N20) in 22Rv1 cells; assay type: cell-based
caspase-3 = experiment: Caspase-3 activity assay in 22Rv1 cells; assay type: cell-based; settings: 20 μM Gal
calpain [10] = experiment: calpain activation by cleavage fragments (Western blotting) in 22Rv1 cells; assay type: cell-based; settings: 20 μM Gal, same time points as p28 (48 to 72 h)
purified 20S proteasome = purified 20S proteasome (Homo sapiens, UniProt P28072+P28074+Q99436); experiment: proteasome activities of purified 20S proteasome; assay type: biochemical; settings: 15 min
Protocol: (§2) FIGS. 10A-10E. […] Purified 20S proteasome was used a control; BG, background (10D).
(§3) Then deubiquitinase (DUBs) activity associated with the 19S proteasome was determined by using the purified 26S proteasome.

purified 26S proteasome = purified 26S proteasome (Homo sapiens, UniProt P28072+P28074+Q99436); experiment: proteasome activities of purified 26S proteasome; assay type: biochemical; settings: 15 min
Protocol: as §2, §3

proteasome [11] = experiment: proteasome CT-like activity in protein extract of 22Rv1 cells; assay type: biochemical; settings: high concentrations (50 or 100 μM)
[12] = test system: 19S proteasome-associated DUB; experiment: DUBs activity of purified 26S proteasome (Ub-AMC substrate); assay type: biochemical
Protocol: as §2, §3

DUBs = experiment: DUB activity in 22Rv1 cells; assay type: cell-based; settings: 20 μM Gal
Protocol: as §1
(§4) Sustained DUBs inhibition was detected for up to 48 h (FIG. 11A). […] AR-V7 protein level remained subtle changes up to 56 h and decreased after 64-68 h, and completely depleted after 72 h (FIG. 11C, c). […] Consistently, caspase-3-specific cleavage fragments, 89 kD fragment of PARP (PARP/p89) were also detected between 48 and 72 h (FIG. 11C, d). Calpain activation is associated with self-autolysis of its small subunit. […] This finding has important clinical significance.

[13] = test system: oxidized proteins (Oxi-P); experiment: oxidized proteins (DNPH derivatization, Western blotting) in 22Rv1 cells; assay type: cell-based; settings: 20 μM Gal
Protocol: as §1, §4

22Rv1 cells [14] = experiment: cell proliferation by MTT in 22Rv1 cells; assay type: cell-based; settings: Gal alone, 24 h
[15] = test system: BTZ-resistant MM 8826 cells; experiment: cell proliferation by MTS in BTZ-resistant MM cells; assay type: cell-based; settings: Gal alone at 10 or 20 μM, 24 h
Protocol: FIGS. 13A-C. […] Cell proliferation was determined by MTS. […] Cell death was determined by detection of PARP cleavage. […] Actin was used as loading control.
8826-7BR is a multiple myeloma cell line developed resistance to bortezomib. […] This finding has high translational potential to clinics.

[16] = test system: CRPC with C-terminal AR loss; settings: Phase 2 ARMOR2; cited from earlier work
proteasome [17] = molecular target: T1, proteasome; experiment: cellular proteasomal activities in VCaP cells; assay type: cell-based; design: endogenous in cells; settings: 5-20 μM Gal, 72 h
Description: Therefore, Gal-induced proteasome inhibition occurs prior to activation of calpain/caspases and loss of AR-V7 protein (FIGS. 4 vs. 2).

- proteasomal CT-like activity (proteasome [2]; 22Rv1 cells, BTZ alone, 48 h): caused proteasomal CT-like inhibition
- proteasomal chymotrypsin (CT)-like activity (proteasome [2]; 22Rv1 cells, BTZ alone, 72 h): dose-dependent inhibition
Compound: CC(C)C[C@H](NC(=O)[C@H](Cc1ccccc1)NC(=O)c1cnccn1)B(O)O [BTZ]
- morphological changes / cell death (22Rv1 cells [1]): did not cause apparent morphological changes

Compound: CC(=O)O[C@H]1CC[C@@]2(C)C(=CC[C@@H]3[C@@H]2CC[C@]2(C)C(c4cccnc4)=CC[C@@H]32)C1 [abiraterone acetate]
- median survival (metastatic CRPC [3]): 14.8 months

Compound: CNC(=O)c1ccc(N2C(=S)N(c3ccc(C#N)c(C(F)(F)F)c3)C(=O)C2(C)C)cc1F [Enzalutamide]
- patients with PSA level decreased more than 50% (metastatic CRPC [4]; chemo-naive patients): 40/65
- patients with PSA level decreased more than 50% (metastatic CRPC [4]; chemotherapy-treated patients): 38/75
- lived longer than those taking placebo (metastatic CRPC [4]; interim analysis): approximately 5 months

Compound: Z-VAD
- rescue of Gal-induced nuclear AR-V7 loss (AR-V7 protein [5]): able to block the Gal-induced AR-V7 depletion

Compound: CCCC[C@@H](C=O)NC(=O)[C@H](CC(C)C)NC(=O)OCc1ccccc1 [calpeptin, Z-Leu-Nle-CHO]
- block of Gal-induced nuclear AR-V7 depletion (AR-V7 protein [5]; 22Rv1 cells, 20 μM Gal plus 40 μM calpeptin, 56 h and 72 h): could be blocked
- rescue of Gal-induced nuclear AR-V7 loss (AR-V7 protein [5]): partially rescued AR-V7 loss by Gal
- rescue of Gal-induced AR-V7 loss by inhibitor (AR-V7 protein [6]): rescue AR-V7 loss partially

Compound: CSCC[C@@H](C=O)NC(=O)[C@H](CC(C)C)NC(=O)[C@H](CC(C)C)NC(C)=O [ALLM, N-acetyl-L-leucyl-L-leucyl-L-methioninal] (Ac-Leu-Leu-Met-aldehyde)
- rescue of Gal-induced AR-V7 loss by inhibitor (AR-V7 protein [6]): rescue AR-V7 loss partially

Compound: CC(C)C[C@@H](C=O)NC(=O)[C@H](CC(C)C)NC(=O)[C@H](CC(C)C)NC(=O)OCc1ccccc1 [MG132] (Cbz-Leu-Leu-Leu-aldehyde)
- IC50 (proteasome [7]): 0.1 µM
- IC50 (calpain [8]): 1.2 µM
- inhibition of Gal-induced AR-V7 degradation (AR-V7): could be inhibited

- three proteasomal activities (proteasome [17]): dose-dependent inhibition
- inhibition at 20 µM (proteasome [2]; after 64 h): > 50%
- inhibition at 20 µM (proteasome [2]; at 48 h): 30%
- inhibition at 20 µM (proteasome [2]; between 2-24 h): 10%
- proteasomal CT-like activity (proteasome [2]; 22Rv1 cells, 5-20 μM Gal, 24 h): dose-dependent decrease
- proteasomal PGPH-like activity (proteasome [2]; 22Rv1 cells, 5-20 μM Gal, 24 h): dose-dependent decrease
- proteasomal trypsin (T)-like activity (proteasome [2]; 22Rv1 cells, 5-20 μM Gal, 24 h): but not trypsin (T)-like activities
Compound: C[C@]12CC[C@H](O)CC1=CC[C@@H]1[C@@H]2CC[C@]2(C)C(n3cnc4ccccc43)=CC[C@@H]12 [Gal, (3S,8R,9S,10R,13S,14S)-17-(benzimidazol-1-yl)-10,13-dimethyl-2,3,4,7,8,9,11,12,14,15-decahydro-1H-cyclopenta[a]phenanthren-3-ol]
- time after which full length AR (AR-FL) protein decreased ([9]; 20 μM Gal for up to 72 h): ≥ 48 h
- AR-FL protein expression in cytosolic and nuclear fractions ([9]; 20 μM Gal, anti-AR N20 antibody): a decrease in both cytosolic and nuclear AR-FL protein expression
- time after which caspase-3 activity increased (caspase-3): ≥ 24 h
- time at which caspase-3 activity reached the highest (caspase-3): 48 h
- caspase-3 activation (caspase-3; after 48 h): 5 fold
- calpain cleavage product Calpastatin/p70 (calpain [10]): detected at the same time points
- three proteasomal activities (CT, PGPH and T-like) (purified 20S proteasome): unable to block all the three proteasomal activities
- three proteasomal activities (CT, PGPH and T-like) (purified 26S proteasome): unable to block all the three proteasomal activities
- CT-like activity of the proteasome (proteasome [11]): could inhibit the CT-like activity
- DUBs activity of purified 26S proteasome ([12]; Gal 20 μM, 15 min): suppressed
- DUBs activity of purified 26S proteasome ([12]; Gal at a low dose (10 μM)): could efficiently inhibit DUBs activity
- earliest time of DUBs inhibition (DUBs): ≤ 2 h
- sustained DUBs inhibition detected up to (DUBs): up to 48 h
- sustained accumulation of oxidized proteins detected up to [13]: up to 72 h
- time before which oxidized proteins accumulated [13]: < 2 h
- cell proliferation (MTT) (22Rv1 cells [14]): did not inhibit cell proliferation
- morphological changes / cell death (22Rv1 cells [1]): did not cause apparent morphological changes
- sensitivity of BTZ-resistant MM cells (MTS) [15]: sensitive to Gal treatment alone
- response of Abi- and Enz refractory CRPC patients with C-terminal AR loss [16]: remain responsive
- proteasomal CT-like activities, time course (proteasome [2]; 22Rv1 cells, 20 μM Gal up to 72 h): inhibited in a time-dependent fashion, but later than DUBs inhibition
- all three proteasomal activities (proteasome [2]; 22Rv1 cells, 5-20 μM Gal, 48 h): decreased in a Gal dose-dependent fashion

Compound: O=C(O)/C(S)=C/c1ccc(I)cc1 [PD150606]
- rescue of Gal-induced AR-V7 loss by inhibitor (AR-V7 protein [6]): rescue AR-V7 loss partially
